Assays:
Mus musculus [1] = test: Anesthetic activity in iv dosed Kunming mouse by up and down method; format: functional
[2] = Toxicity in iv dosed Kunming mouse assessed as lethal dose; format: organism-based; details: in vivo
[3] = Therapeutic index, ratio of LD50 for toxicity in iv dosed Kunming mouse assessed as lethal dose to ED50 for anesthetic activity in iv dosed Kunming mouse; format: organism-based; details: in vivo, read-out: Ratio LD50/ED50
Mus musculus [4] = test: Anesthetic activity in Kunming mouse assessed as disappearance of flip reflex by measuring onset time administered as single bolus dose; format: functional
Mus musculus [5] = test: Anesthetic activity in Kunming mouse assessed as reappearance of flip reflex by measuring duration time administered as single bolus dose; format: functional; further: test concentration or dose not given here

SMILES | ED50 (Mus musculus [1]) | LD50 [2] | selectivity ratio [3] | Time (Mus musculus [4]) | Time (Mus musculus [5])
CCN1CCN(CCC(=O)Oc2c(C(C)C)cccc2C(C)C)CC1.Cl | 12 mg/kg | 38000 µmol/kg | 3.2 | 2 s | 167 s
CCN1CCN(CC(=O)Oc2c(C(C)C)cccc2C(C)C)CC1.Cl | 8 mg/kg | 11500 µmol/kg | 1.4 | 13 s | 139 s
CCN(CC)CCC(=O)Oc1c(C(C)C)cccc1C(C)C.Cl | 17 mg/kg | 58800 µmol/kg | 3.5 | 3 s | 162 s
CC(C)c1cccc(C(C)C)c1OC(=O)CCN1CCOCC1.Cl | 12 mg/kg | 43800 µmol/kg | 3.6 | 16 s | 145 s
CC(C)c1cccc(C(C)C)c1OC(=O)CCN1CCCCC1.Cl | 8.2 mg/kg | 36900 µmol/kg | 4.5 | 21 s | 152 s
CCCN(CCC)CC(=O)OCCCC(=O)Oc1c(C(C)C)cccc1C(C)C.Cl | 9 mg/kg | 45900 µmol/kg | 5.1 | 37 s | 402 s
CCN(CC)CC(=O)OCCCC(=O)Oc1c(C(C)C)cccc1C(C)C.Cl | 11 mg/kg | 52800 µmol/kg | 4.8 | 20 s | 371 s
CCN1CCN(CCCC(=O)OCCCC(=O)Oc2c(C(C)C)cccc2C(C)C)CC1.Cl | 6.5 mg/kg | 31900 µmol/kg | 4.9 | 11 s | 456 s
CC(C)c1cccc(C(C)C)c1OC(=O)CCCOC(=O)CN1CCCCC1.Cl | 8.3 mg/kg | 39800 µmol/kg | 4.8 | 27 s | 440 s
CC1CCN(CCC(=O)Oc2c(C(C)C)cccc2C(C)C)CC1.Cl | 9.2 mg/kg | 38900 µmol/kg | 4.2 | 41 s | 179 s
CC(C)c1cccc(C(C)C)c1OC(=O)CN1CCCCC1C.Cl (stereo not given) | 9.2 mg/kg | 15800 µmol/kg | 1.7 | 27 s | 150 s
CC1CCN(CC(=O)OCCCC(=O)Oc2c(C(C)C)cccc2C(C)C)CC1.Cl | 3.6 mg/kg | 17600 µmol/kg | 4.8 | 8 s | 362 s
CC(C)c1cccc(C(C)C)c1OC(=O)CCCOC(=O)CCCN1CCOCC1.Cl | 3.6 mg/kg | 17500 µmol/kg | 4.9 | 7 s | 375 s
CCN1CCN(CC(=O)OCCCC(=O)Oc2c(C(C)C)cccc2C(C)C)CC1.Cl | 10.1 mg/kg | 50500 µmol/kg | 5 | 16 s | 193 s
CC(C)c1cccc(C(C)C)c1OC(=O)CCN1CCN(C)CC1.Cl | 9 mg/kg | 33400 µmol/kg | 3.7 | 14 s | 156 s
CC1CCCN(CCCC(=O)OCCCC(=O)Oc2c(C(C)C)cccc2C(C)C)C1.Cl (stereo not given) | 1.9 mg/kg | 10700 µmol/kg | 5.6 | 11 s | 571 s
CC1CCCN(CC(=O)OCCCC(=O)Oc2c(C(C)C)cccc2C(C)C)C1.Cl (stereo not given) | 2.9 mg/kg | 14700 µmol/kg | 5.1 | 16 s | 547 s

SMILES | ED50 (Mus musculus [1]) | LD50 [2] | selectivity ratio [3] | Time (Mus musculus [4]) | Time (Mus musculus [5])
CC(C)c1cccc(C(C)C)c1OC(=O)CCCOC(=O)CCCN1CCCC1.Cl | 8.9 mg/kg | 46400 µmol/kg | 5.2 | 1 s | 534 s
CC1CCN(CC(=O)Oc2c(C(C)C)cccc2C(C)C)CC1.Cl | 11.1 mg/kg | 18000 µmol/kg | 1.6 | 11 s | 137 s
CC1CCCN(CC(=O)Oc2c(C(C)C)cccc2C(C)C)C1.Cl (stereo not given) | 1.7 mg/kg | 3900 µmol/kg | 2.3 | 27 s | 172 s
CC1CCN(CCCC(=O)OCCCC(=O)Oc2c(C(C)C)cccc2C(C)C)CC1.Cl | 2.5 mg/kg | 13100 µmol/kg | 5.2 | 3 s | 337 s
CC(C)c1cccc(C(C)C)c1OC(=O)CCCOC(=O)CN1CCCCC1C.Cl (stereo not given) | 13 mg/kg | 62800 µmol/kg | 4.8 | 9 s | 317 s
CC(C)c1cccc(C(C)C)c1OC(=O)CCCOC(=O)CN1CCCC1.Cl | 11.3 mg/kg | 56500 µmol/kg | 5 | 18 s | 216 s
CC(C)c1cccc(C(C)C)c1OC(=O)CCN1CCCC1.Cl | 15.1 mg/kg | 3900 µmol/kg | 2.6 | 5 s | 180 s
CC(C)c1cccc(C(C)C)c1OC(=O)CCCOC(=O)CCCN1CCCCC1.Cl | 2.4 mg/kg | 12300 µmol/kg | 5.1 | 8 s | 413 s
CCN(CC)CCCC(=O)OCCCC(=O)Oc1c(C(C)C)cccc1C(C)C.Cl | 7.1 mg/kg | 36300 µmol/kg | 5.1 | 24 s | 486 s
CC(C)c1cccc(C(C)C)c1OC(=O)CCCOC(=O)CN1CCOCC1.Cl | 8.2 mg/kg | 39600 µmol/kg | 4.8 | 19 s | 434 s
CC(C)c1cccc(C(C)C)c1OC(=O)CCCOC(=O)CCCN1CCCCC1C.Cl (stereo not given) | 6.2 mg/kg | 32100 µmol/kg | 5.2 | 9 s | 412 s
CCCN(CCC)CCCC(=O)OCCCC(=O)Oc1c(C(C)C)cccc1C(C)C.Cl | 9.2 mg/kg | 48100 µmol/kg | 5.2 | 21 s | 536 s
CCCN(CCC)CCC(=O)Oc1c(C(C)C)cccc1C(C)C.Cl | 15.2 mg/kg | 57600 µmol/kg | 3.8 | 5 s | 168 s
CC(C)c1cccc(C(C)C)c1OC(=O)CCN1CCCCC1C.Cl (stereo not given) | 14 mg/kg | 57700 µmol/kg | 4.1 | 2 s | 154 s
CC1CCCN(CCC(=O)Oc2c(C(C)C)cccc2C(C)C)C1.Cl (stereo not given) | 7.1 mg/kg | 28700 µmol/kg | 4.1 | 18 s | 144 s
CC(C)c1cccc(C(C)C)c1O [PROPOFOL] | 0.6 mg/kg | 1600 µmol/kg | 2.7 | 15 s | 57 s
